Reference: patent US12677825B2, “Composition for protecting islet transplantation” (LG CHEM, LTD., priority 2020, dated 2026)

Assays:
[1] = system: islets from hIAPP+/− FVB/N mice; test: Alamar blue viability of islets isolated with or without Compound 1; type: cell-based, mouse; conditions: 20 μM Compound 1 during islet isolation, vs non-treated group; FIG. 1A
Method: (§1) Mouse islets were isolated from 10- to 12-week-old hIAPP^+/− and C57BL/6 mice as described previously. Briefly, 0.8 mg/mL of collagenase P (Roche, Indianapolis, IN, USA) in Hank's buffered saline solution (HBSS, Sigma-Aldrich, St. Louis, MO, USA) with or without 20 μM Compound 1 were infused into the common bile duct for mouse pancreas digestion. Islets were purified from the digested pancreas using a Ficoll (Biochrom, Berlin, Germany) gradient and washed several times with 1 xHBSS. Isolated islets were cultured while free-floating in 10 mL of RPMI 1640 (Gibco, Grand Island, NY, USA). The medium was supplemented with 10% heat-inactivated FBS (fetal bovine serum) at 37° C. and 5% CO2 incubation prior to the ex vivo and in vivo studies.
The viability of islets was evaluated using Alamar blue staining according to the manufacturer's protocol (Invitrogen, Grand Island, NY, USA). Briefly, islets isolated from hIAPP^+/− mice were cultured at a density of 100 islet equivalents (IE) per well in 24-well plates with RPMI 1640 containing 10% FBS and 0.625% BSA with or without Compound 1. […] The fluorescence intensity of each well was measured at 570/585 nm (excitation/emission) using a GloMax-Multi Plus Detection System (Promega, Fitchburg, WI, USA), and the values were normalized to a blank.

[2] = system: c-Jun N-terminal kinases, HMGB1, IL-1β, IL-6, TNF-α; test: Real-time qRT-PCR of c-Jun, HMGB1 and proinflammatory cytokines after islet isolation; type: cell-based, mouse; conditions: after isolation with 20 μM Compound 1, vs non-treated group; FIG. 1F
Method: as §1, with “The medium was supplemented with 10% heat-inactivated FBS (fetal bovine serum) at 37° C. and 5% CO2 incubation prior to the ex vivo and in vivo studies.” left out
Harvested islets were treated with 500 μL Trizol (Life Technologies, Grand Island, NY, USA), and then 100 μL of chloroform was added. […] RNA purity was assessed by NanoDrop (Thermo Scientific, Wilmington, DE, USA) and agarose gel electrophoresis. […] Total RNA was reverse transcribed to quantify the expression of genes using the SuperScript™ II reverse transcription system (Life Technologies) according to the manufacturer's protocol.
Real-time qRT-PCR was performed using gene-specific primer pairs (Table 1). […] To quantify the expression level of genes, real-time PCR was performed using a SYBR premix kit (Takara Bio Inc., Tokyo, Japan) and an ABI Prism 7000 (Applied Biosystems, Foster City, CA, USA) according to the manufacturers' protocols.

[3] = system: islet grafts in STZ-induced diabetic hIAPP+/− FVB/N mice; test: Amyloid accumulation in islet grafts (thioflavin S staining); type: in vivo, mouse; conditions: islets cultured 72 hours with Compound 1, vs control group; FIG. 7G
Method: A marginal mass renal subcapsular islet transplantation model was used to assess the in vivo islet function of hIAPP^+/− mice. To induce diabetes, 180 mg/kg of streptozotocin (STZ, Sigma-Aldrich) was administered to 8- to 10-week-old FVB/N mice. Mice were considered to have diabetes when two consecutive blood glucose level readings were higher than 300 mg/dL. Equal amounts (400 IEQ of islets per recipient) of islets isolated from hIAPP^+/− mice were allocated to the following two groups: culture medium supplemented with 0.625% BSA (BSA group) and 0.625% BSA plus Compound 1 (BSA+Compound 1 group) to evaluate the combined effect of Compound 1 on islet mass and function during ex vivo culture. After culture for 72 hours, islets were transplanted into the renal subscapular space of diabetic hIAPP^+/− mice. The IE number was calculated using the Ricordi algorithm by classifying islets according to their diameter. After islet transplantation, non-fasting blood glucose levels were measured three times a week for the first 2 weeks and twice a week for the last 2 weeks. […]

O=S1(=O)CCN(Cc2cc(NC3CCOCC3)c3[nH]c(-c4ccccc4)cc3c2)CC1 [Compound 1]
relative ex vivo cell viability assessed by Alamar blue assay [1]: significantly increased
transcriptional expression of c-Jun N-terminal kinases, HMGB1, IL-1β, IL-6 and TNF-α [2]: significantly decreased
proportion of accumulation of amyloid in sections of islet grafts [3]: significantly reduced
